Marks after values point to notes of the source that are not given here.
test: logP determination via retention times, calibrated with unbranched alkan-2-ones; type: physicochemical; conditions: HPLC on reversed-phase C 18, EEC Directive 79/831 Annex V.A8; method *: 40° C., 0.1% aqueous formic acid and acetonitrile, linear gradient 10% to 95% acetonitrile

Row | logP | SMILES
1 | 1.75* | CCOC(=O)Nc1ccc(Nc2ncc(Br)c(NCC3CC3)n2)cc1O [compound 489]
2 | 3.07* | FC(F)Sc1ccc(Nc2ncc(Br)c(NCC3CC3)n2)cc1 [compound 470]
3 | 1.59* | CN(C)C(=O)c1ccc(Nc2ncc(Cl)c(NCC3CC3)n2)cc1 [compound 509]

Second part, the molecule before the results:

Row | SMILES | logP
4 | CCC(=O)c1cc(Nc2ncc(Br)c(NCC3CC3)n2)ccc1O [compound 488] | 2.21*
5 | CC(=O)c1cc(Nc2ncc(Cl)c(NCC3CC3)n2)ccc1Cl [compound 540] | 2.51*
6 | CN(C(=O)C(C)(C)C)c1ccc(Nc2ncc(Cl)c(NCC3CC3)n2)cc1 [compound 525] | 2.02*

same assay, conditions: HPLC on reversed-phase C18, method *: 40° C., 0.1% aqueous formic acid and acetonitrile, linear gradient 10% to 95% acetonitrile

Row | logP | SMILES
7 | 2.92* | CCSc1cccc(Nc2ncc(Br)c(NC3CC3)n2)c1 [compound 708]
8 | 2.65* | FC(F)C(F)(F)Oc1ccc(Nc2ncc(Cl)c(NC3CC3)n2)cc1 [compound 108]
9 | 2.5* | CCCc1ccc(Nc2ncc(Cl)c(NC3CC3)n2)cc1 [compound 953]
10 | 1.39* | O=C1OCCN1c1ccc(Nc2ncc(Cl)c(NCC3CC3)n2)cc1 [compound 160]
11 | 2.21* | CC(C)(C)NC(=O)c1ccc(Nc2ncc(Cl)c(NCC3CC3)n2)cc1 [compound 673]
12 | 1.52* | C/C(=N/O)c1cccc(Nc2ncc(Cl)c(NC3CC3)n2)c1 [compound 736]

Further lines, the molecule ahead of its results:

Row | SMILES | logP
13 | COCC(C)Nc1ccc(Nc2ncc(Cl)c(NC3CC3)n2)cc1 (stereo not shown) [Example 110] | 2.03*
14 | Fc1ccc(F)c(Nc2ncc(Cl)c(NC3CC3)n2)c1 [compound 948] | 2.91*
15 | NS(=O)(=O)c1cc(Nc2ncc(Cl)c(NC3CC3)n2)ccc1Cl [compound 949] | 1.66*
16 | O=C1CCCCN1c1cccc(Nc2ncc(Br)c(NC3CC3)n2)c1 [compound 733] | 1.55*
17 | CSc1ccc(Nc2ncc(Cl)c(NC3CC3)n2)cc1N [compound 664] | 1.69*
18 | Oc1ccc(Nc2ncc(Cl)c(NCC3CC3)n2)c(F)c1 [compound 694] | 1.46*
19 | Oc1ccc(Nc2ncc(Cl)c(NCC3CC3)n2)cc1 [compound 680] | 1.36*
20 | FC(F)C(F)(F)Oc1ccccc1Nc1ncc(Cl)c(NC2CC2)n1 [compound 896] | 3.14*
21 | CSc1cccc(Nc2ncc(Cl)c(NCC3CC3)n2)c1 [compound 119] | 2.27*
22 | CCOC(=O)c1cccc(Nc2ncc(Br)c(NC3CC3)n2)c1 [compound 750] | 2.4*
23 | CNS(=O)(=O)Cc1ccc(Nc2ncc(Br)c(NC3CC3)n2)cc1 [compound 757] | 1.51*
24 | CCC(C)Oc1cc(Nc2ncc(Cl)c(NC3CC3)n2)ccc1C (racemic) [compound 955] | 2.99*
25 | CCOc1cccc(Nc2ncc(Br)c(NC3CC3)n2)c1 [compound 751] | 2.18*

same assay, conditions: HPLC on reversed-phase C18, method *: 40° C.; mobile phase 0.1% aqueous formic acid and acetonitrile; linear gradient 10% to 95% acetonitrile

Row | logP | SMILES
26 | 2.21* | Clc1cnc(Nc2cccc(-c3nccs3)c2)nc1NC1CC1 [compound 297]
27 | 3.14* | FC(F)(F)c1ccc(Nc2ncc(Cl)c(NC3CC3)n2)cc1 [compound 277]

same assay, conditions: HPLC on reversed-phase C18 column (EEC Directive 79/831 Annex V.A8); method *: 40° C.; 0.1% aqueous formic acid and acetonitrile; linear gradient 10% to 95% acetonitrile

Row | logP | SMILES
28 | 2.45* | CC(C)Oc1cccc(Nc2ncc(Cl)c(NC3CC3)n2)c1 [compound 195]
29 | 2.13* | CN(C)C(=O)c1ccc(Nc2ncc(C(F)(F)F)c(NCC3CC3)n2)cc1 [compound 206]
30 | 1.76* | CCOc1ccc(Nc2ncc(Cl)c(NC3CC3)n2)cc1 [compound 183]
31 | 1.99* | CCC(=O)c1cc(Nc2ncc(Cl)c(NC3CC3)n2)ccc1O [compound 250]

Continued, molecule first:

Row | SMILES | logP
32 | COc1ccc(Nc2ncc(Br)c(NCC3CC3)n2)cn1 [compound 191] | 1.63*
33 | O=C(Nc1ccc(Nc2ncc(C(F)(F)F)c(NCC3CC3)n2)cc1)C(F)(F)F [compound 203] | 2.84*

same assay, conditions: HPLC reversed-phase C 18, EEC Directive 79/831 Annex V.A8; method **: 43° C., 0.1% aqueous phosphoric acid and acetonitrile, linear gradient 10% to 95% acetonitrile

Row | logP | SMILES
34 | 1.67** | COCc1cccc(Nc2nc(C)c(Cl)c(NC3CC3)n2)c1 [compound 839]

same assay, conditions: HPLC reversed-phase C 18, EEC Directive 79/831 Annex V.A8; method *: 40° C., 0.1% aqueous formic acid and acetonitrile, linear gradient 10% to 95% acetonitrile

Row | logP | SMILES
35 | 1.48* | CC(=O)Cc1ccc(Nc2ncc(Cl)c(NC3CC3)n2)cc1 [compound 851]
36 | 1.85* | Cc1ccc(Nc2ncc(Br)c(NC3CC3)n2)cc1CC#N [compound 820]

The remaining lines, values behind:

Row | SMILES | logP
37 | O=C1CCCCN1c1cccc(Nc2ncc(C(F)(F)F)c(NC3CC3)n2)c1 [compound 803] | 2.18*
38 | CSC(C)c1cccc(Nc2ncc(Br)c(NC3CC3)n2)c1 (stereo not shown) [compound 811] | 2.63*

same assay, conditions: method **: HPLC reversed-phase C 18, 43° C., 0.1% aqueous phosphoric acid and acetonitrile, linear gradient 10% to 95% acetonitrile

Row | logP | SMILES
39 | 1.84** | CC(=O)c1cccc(Nc2ncc(Cl)c(NC3CC3)n2)c1 [Example 5]
40 | 1.71** | CNS(=O)(=O)c1ccc(Nc2ncc(Cl)c(NC3CC3)n2)cc1 [compound 21]
41 | 1.8** | Brc1cnc(Nc2ccccc2)nc1NC1CC1 [Example 30]
42 | 1.75** | CS(=O)(=O)c1ccc(Nc2ncc(Cl)c(NC3CC3)n2)cc1 [Example 50]
43 | 1.78** | COc1cc(Nc2ncc(Cl)c(NCC3CC3)n2)cc(OC)c1OC [Example 12]
44 | 2.13** | O=S(=O)(c1cccc(Nc2ncc(Cl)c(NC3CC3)n2)c1)N1CCOCC1 [Example 19]

The next lines start with the molecule.

Row | SMILES | logP
45 | NS(=O)(=O)c1ccc(Nc2ncc(Cl)c(NC3CC3)n2)cc1 [compound 25] | 1.37**
46 | Cc1cc(C)nc(NS(=O)(=O)c2ccc(Nc3ncc(Cl)c(NC4CC4)n3)cc2)n1 [compound 26] | 1.72**
47 | Cl.Fc1cnc(Nc2ccccc2)nc1NC1CC1 [compound 41] | 1.45**

same assay, conditions: method **: HPLC reversed-phase C 18, temperature 43° C.; mobile phase 0.1% aqueous phosphoric acid and acetonitrile; linear gradient 10% to 95% acetonitrile

Row | logP | SMILES
48 | 2.41** | COc1ccc(Nc2ncc(C(F)(F)F)c(NC3CC3)n2)cc1 [compound 641]

same assay, conditions: method **: HPLC, reversed-phase C 18, 43° C., mobile phase 0.1% aqueous phosphoric acid and acetonitrile, linear gradient from 10% to 95% acetonitrile

Row | logP | SMILES
49 | 1.93** | CC1(C)CC1Nc1nc(Nc2cccc(N3CCOC3=O)c2)ncc1Cl (stereo not shown) [compound 1035]

same assay, conditions: method *: HPLC reversed-phase C18, 40° C., 0.1% aqueous formic acid and acetonitrile, linear gradient 10% to 95% acetonitrile

Row | logP | SMILES
50 | 1.8* | COC(=S)Nc1ccc(Nc2ncc(Cl)c(NC3CC3)n2)cc1 [compound 365]
51 | 1.62* | O=C(Nc1cccc(Nc2ncc(Cl)c(NC3CC3)n2)c1)C1CC1 [Example 84]
52 | 2.84* | CSc1ccc(Nc2ncc(Cl)c(NC3CC3)n2)cc1Cl [compound 377]
53 | 1.74* | CC(C)(CF)C(=O)Nc1ccc(Nc2ncc(Cl)c(NC3CC3)n2)cc1 [Example 67]
54 | 1.55* | FC(F)(F)c1nc2ccc(Nc3ncc(Cl)c(NC4CC4)n3)cc2[nH]1 [Example 68]
55 | 1.46* | Cc1ccc(Nc2ncc(Br)c(NC3CC3)n2)cc1O [compound 366]

Further lines, the molecule ahead of its results:

Row | SMILES | logP
56 | O=C1NC(=O)C(c2ccc(Nc3ncc(Br)c(NC4CC4)n3)cc2)N1 (stereo not shown) [compound 384] | 0.62*
57 | O=S(=O)(c1ccc(Nc2ncc(Cl)c(NC3CC3)n2)cc1)N1CCOCC1 [compound 85] | 2.68*
58 | CC(C)CCSc1cccc(Nc2ncc(Cl)c(NC3CC3)n2)c1.Cc1ccc(S(=O)(=O)O)cc1 [compound 441] | 4.24*
59 | CS(=O)(=O)c1ccc(Nc2ncc(Br)c(NCC3CC3)n2)cc1 [compound 448] | 2.09*
60 | CCOC(=O)Nc1cccc(Nc2ncc(Br)c(NC3CC3)n2)c1 [compound 385] | 1.83*

same assay, conditions: method *: HPLC reversed-phase C 18, temperature 40° C.; mobile phase 0.1% aqueous formic acid and acetonitrile; linear gradient 10% to 95% acetonitrile

Row | logP | SMILES
61 | 1.58* | O=C1NC(=O)C(c2ccc(Nc3ncc(C(F)(F)F)c(NC4CC4)n3)cc2)N1 (stereo not shown) [compound 658]
62 | 1.38* | CCN(C(C)=O)c1ccc(Nc2ncc(F)c(NC3CC3)n2)cc1 [compound 581]

Further lines, the molecule ahead of its results:

Row | SMILES | logP
63 | COc1ccc(Nc2ncc(C(F)(F)F)c(NC3CC3)n2)cc1 [compound 641] | 2.21*;
64 | N#Cc1ccc(Nc2ncc(F)c(NC3CC3)n2)cc1 [compound 575] | 1.73*
65 | COc1cc(Nc2ncc(C(F)(F)F)c(NC3CC3)n2)ccc1NC(C)=O [compound 639] | 1.85*
66 | O=C(NCC(F)(F)F)c1cccc(Nc2ncc(Cl)c(NC3CC3)n2)c1 [compound 630] | 1.8*
67 | N#Cc1cnc(Nc2ccc3c(c2)CC(=O)N3)nc1NC1CC1 [compound 613] | 1.5*
68 | COC(=O)Nc1ccc(Nc2ncc(F)c(NC3CC3)n2)cc1 [compound 594] | 1.28*

same assay, conditions: method *: HPLC, reversed-phase C 18, 40° C., mobile phase 0.1% aqueous formic acid and acetonitrile, linear gradient from 10% to 95% acetonitrile

Row | logP | SMILES
69 | 1.93*; | CC1(C)CC1Nc1nc(Nc2cccc(N3CCOC3=O)c2)ncc1Cl (stereo not shown) [compound 1035]
70 | 4.19* | CCSC(C)c1cccc(Nc2ncc(C(F)(F)F)c(NC3CC3)n2)c1 (stereo not shown) [compound 987]
71 | 4.88* | CCCSc1cccc(Nc2ncc(Cl)c(N(C)C3CC3)n2)c1 [compound 983]
72 | 3.67* | CCc1cccc(Nc2ncc(C(F)(F)F)c(NC3CC3)n2)c1 [compound 1034]

same assay, conditions: pH 2.3; read-out: logP (pH2.3)

Row | chromatographic logP | SMILES
73 | 1.73 | CC(C)NC(=O)c1ccc(Nc2ncc(Cl)c(NC3CC3)n2)cc1 [Example 43, 4-{[5-Chloro-4-(cyclopropylamino)pyrimidin-2-yl]amino}-N-isopropylbenzamide]
74 | 2.97 | CC(Nc1nc(Cl)ncc1Cl)C1CC1 (stereo not shown) [2,5-dichloro-N-(1-cyclopropylethyl)pyrimidine-4-amine]

Second part, the molecule before the results:

Row | SMILES | chromatographic logP
75 | NS(=O)(=O)c1cccc(Nc2ncc(Cl)c(NC3CC3)n2)c1 [Example 15, 3-{[5-Chloro-4-(cyclopropylamino)pyrimidin-2-yl]amino}benzenesulphonamide] | 1.37
76 | Ic1cnc(Nc2ccccc2)nc1NC1CC1 [N^4-Cyclopropyl-5-iodo-N^2-phenylpyrimidine-2,4-diamine] | 1.82
77 | Fc1cnc(Cl)nc1NC1CC1 [2-chloro-N-cyclopropyl-5-fluoropyrimidine-4-amine] | 1.42

same assay, conditions: reversed-phase C18 HPLC column; method **: HPLC reversed-phase C 18, 43° C., 0.1% aqueous phosphoric acid and acetonitrile, linear gradient 10% to 95% acetonitrile; read-out: logP

Row | chromatographic logP | SMILES
78 | 1.37 | NS(=O)(=O)c1cccc(Nc2ncc(Cl)c(NC3CC3)n2)c1 [Example 15, 3-{[5-Chloro-4-(cyclopropylamino)pyrimidin-2-yl]amino}benzenesulphonamide]
79 | 1.73 | CC(C)NC(=O)c1ccc(Nc2ncc(Cl)c(NC3CC3)n2)cc1 [Example 43, 4-{[5-Chloro-4-(cyclopropylamino)pyrimidin-2-yl]amino}-N-isopropylbenzamide]

From US20100081679A1, “DIAMINOPYRIMIDINES AS FUNGICIDES” (Bayer CropScience AG, priority 2007, published 2010)
